# From patent US10718006B2, “Methods for detecting beta-lactamase-producing bacteria” (priority 2015, dated 2020)
# Columns and labels:
# Assay type in all cases: cell-based
# [1] = system: E. coli strains producing various β-lactamases; assay: Electrochemical assay with substrate HMRZ-86, liquid cultures; conditions: liquid culture, 30 min with HMRZ-86
# Method: (§1) Each cryopreserved strain is cultured in 10 mL of LB medium at 37° C. until the stationary phase is obtained.
# (§2) A volume of 50 μL of culture liquid is incubated in the presence of 50 μL of a solution of HMRZ-86 at 0.5 mM in PBS at 37° C. with stirring for 30 min. 40 μL of the reaction mixture is taken and transferred onto the surface of a screen-printed carbon sensor (Dropsens, DRP-110) connected beforehand to a STAT 8000P portable potentiostat (Dropsens) with power supply from the computer's USB port and controlled by the DropView 8400 software. Linear voltammetry measurements are carried out by linear potential scanning from −0.1 V to 1.2 V at a rate of 50 mV·s^−1. The peak current appearing in the potential range +0.2 to +0.55 V vs. Ag/AgCl, associated with hydrolysis of the beta-lactam ring of HMRZ-86, is selected as the analytical response. If the intensity of the peak (i) has a value above 500 nA, the sample contains a strain capable of degrading the C3Gs.
# (§3) The electrochemical method of the invention was applied to analysis of a panel of 40 strains producing various β-lactamases and was compared with the R-Lacta™ Test (Biorad), the principle of which is based on qualitative colorimetric detection of the C3G-resistant strains. The results presented in Table 7 were obtained after 30 min of incubation of the bacteria with the substrate HMRZ-86 for both methods. Based on the interpretation of the results proposed by the supplier, the R-Lacta™ Test allows identification of the C3G-resistant strains with a level of agreement of 68%, whereas a level of agreement of 95% was obtained with the electrochemical method of the invention. In contrast to colorimetry, amperometry offers the advantage of measuring a numerical value of current which, on the one hand, avoids any subjective interpretation of the result (intermediate colour), and on the other hand allows traceability of the result.
# (§4) Table 7: Comparison of the results obtained with the electrochemical method of the invention for liquid cultures with those obtained with the R-Lacta™ Test implemented according to the supplier's recommendations with isolated colonies. In both cases, the readings were taken after incubation with the substrate HMRZ-86 for 30 min.
# C. freundii strain = assay: as above; conditions: C. freundii 11745, Inducible cephalosporinase; liquid culture, 30 min with HMRZ-86
# Method: as §1, §2, §3, §4
# P. aeruginosa strains = assay: as above; conditions: liquid culture, 30 min with HMRZ-86
# Method: as §1, §2, §3, §4
# K. oxytoca strain [2] = assay: as above; conditions: K. oxytoca 11779, Low-level penicillinase; liquid culture, 30 min with HMRZ-86
# Method: as §1, §2, §3, §4
# K. pneumoniae strains = assay: as above; conditions: liquid culture, 30 min with HMRZ-86
# Method: as §1, §2, §3, §4
# E. aerogenes strains = assay: as above; conditions: liquid culture, 30 min with HMRZ-86
# Method: as §1, §2, §3, §4
# S. marcescens strain [3] = assay: as above; conditions: S. marcescens 11787, Hyperproduced cephalosporinase; liquid culture, 30 min with HMRZ-86
# Method: as §1, §2, §3, §4
# E. cloacae strains [4] = assay: as above; conditions: liquid culture, 30 min with HMRZ-86
# Method: as §1, §2, §3, §4
# P. mirabilis strains [5] = assay: as above; conditions: liquid culture, 30 min with HMRZ-86
# Method: as §1, §2, §3, §4
# K. oxytoca strain [6] = assay: β-Lacta Test (colorimetric, HMRZ-86), isolated colonies; set-up: key: Yellow or orange colour: negative result (absence of C3G-resistant strains); Orange: Yellow or orange colour: negative result (absence of C3G-resistant strains); Red colour: positive result (presence of C3G-resistant strains); conditions: K. oxytoca 11779, Low-level penicillinase, 30 min with HMRZ-86
# Method: as §3, §4
# S. marcescens strain [7] = assay: as above; set-up: key: Yellow or orange colour: negative result (absence of C3G-resistant strains); Orange: Yellow or orange colour: negative result (absence of C3G-resistant strains); Red colour: positive result (presence of C3G-resistant strains); conditions: S. marcescens 11787, Hyperproduced cephalosporinase, 30 min with HMRZ-86
# Method: as §3, §4
# E. cloacae strains [8] = assay: as above; set-up: key: Yellow or orange colour: negative result (absence of C3G-resistant strains); Orange: Yellow or orange colour: negative result (absence of C3G-resistant strains); Red colour: positive result (presence of C3G-resistant strains); conditions: 30 min with HMRZ-86
# Method: as §3, §4
# P. mirabilis strains [9] = assay: as above; set-up: key: Yellow or orange colour: negative result (absence of C3G-resistant strains); Orange: Yellow or orange colour: negative result (absence of C3G-resistant strains); Red colour: positive result (presence of C3G-resistant strains); conditions: 30 min with HMRZ-86
# Method: as §3, §4
# [10] = E. cloacae 11784, Hyperproduced cephalosporinase
# [11] = E. cloacae 11790, Hyperproduced cephalosporinase
# [12] = E. cloacae 11794, Hyperproduced cephalosporinase
# [13] = P. mirabilis 11747, Beta-lactamase negative
# [14] = P. mirabilis 11768, Low-level penicillinase
structure (smiles),measurement,setting,value
"CC(C)(ON=C(C(=O)N[C@@H]1C(=O)N2C(C(=O)O)=C(C=Cc3ccc([N+](=O)[O-])cc3[N+](=O)[O-])CS[C@H]12)c1csc(N)n1)C(=O)O.O=C(O)C(F)(F)F [HMRZ-86, (6R,7R)-trifluoroacetate 7-[[2-(2-amino-4-thiazolyl)-2-[(1-carboxy-1-methylethoxy)imino]acetyl]amino]-1-aza-3-[2-(2,4-dinitrophenyl)ethenyl]-8-oxo-5-thiabicyclo[4.2.0]oct-2-ene-2-carboxylic acid]",Electrochemical assay Intensity,"[1]; E. coli 11746, Hyperproduced penicillinase",380 nA
same,Electrochemical assay Intensity,"[1]; E. coli 11748, Inducible cephalosporinase",424 nA
same,Electrochemical assay Intensity,"[1]; E. coli 11755, Carbapenemase OXA-48 - CTX-M",3509 nA
same,Electrochemical assay Intensity,"[1]; E. coli 11757, Carbapenemase OXA-48",625 nA
same,Electrochemical assay Intensity,"[1]; E. coli 11765, Hyperproduced penicillinase",323 nA
same,Electrochemical assay Intensity,"[1]; E. coli 11766, Inducible cephalosporinase",408 nA
same,Electrochemical assay Intensity,"[1]; E. coli 11776, Inducible cephalosporinase",446 nA
same,Electrochemical assay Intensity,"[1]; E. coli 11780, Hyperproduced penicillinase",425 nA
same,Electrochemical assay Intensity,"[1]; E. coli 11781, Low-level penicillinase",377 nA
same,Electrochemical assay Intensity,"[1]; E. coli 11791, Hyperproduced cephalosporinase",816 nA
same,Electrochemical assay Intensity,"[1]; E. coli 11810, ESBL CTX-M-1",2544 nA
same,Electrochemical assay Intensity,"[1]; E. coli 11817, ESBL CTX-M-2",1472 nA
same,Electrochemical assay Intensity,"[1]; E. coli 11818, ESBL CTX-M-1",3583 nA
same,Electrochemical assay Intensity,"[1]; E. coli 11820, ESBL SHV-12",1249 nA
same,Electrochemical assay Intensity,"[1]; E. coli 11828, ESBL CTX-M-27",2640 nA
same,Electrochemical assay Intensity,"[1]; E. coli 11833, ESBL CTX-M-9",2455 nA
same,Electrochemical assay Intensity,"[1]; E. coli 11834, ESBL TEM-12",418 nA
same,Electrochemical assay Intensity,"[1]; E. coli 11863, ESBL CTX-M-14",2544 nA
same,Electrochemical assay Intensity,"[1]; E. coli K12, Beta-lactamase negative",302 nA
same,Electrochemical assay Intensity,C. freundii strain,369 nA
same,Electrochemical assay Intensity,"P. aeruginosa strains; P. aeruginosa 11774, Hyperproduced cephalosporinase",2160 nA
same,Electrochemical assay Intensity,"P. aeruginosa strains; P. aeruginosa 11778, Hyperproduced cephalosporinase",2278 nA
same,Electrochemical assay Intensity,"P. aeruginosa strains; P. aeruginosa 11782, Hyperproduced cephalosporinase",1778 nA
same,Electrochemical assay Intensity,K. oxytoca strain [2],412 nA
same,Electrochemical assay Intensity,"K. pneumoniae strains; K. pneumoniae 11754, Carbapenemase OXA-48 - CTX-M",3520 nA
same,Electrochemical assay Intensity,"K. pneumoniae strains; K. pneumoniae 11762, Carbapenemase OXA-48",476 nA
same,Electrochemical assay Intensity,"K. pneumoniae strains; K. pneumoniae 11770, Low-level penicillinase",365 nA
same,Electrochemical assay Intensity,"K. pneumoniae strains; K. pneumoniae 11812, ESBL CTX-M-15",3494 nA
same,Electrochemical assay Intensity,"K. pneumoniae strains; K. pneumoniae 11839, Carbapenemase KPC-2",1567 nA
same,Electrochemical assay Intensity,"K. pneumoniae strains; K. pneumoniae 11842, Carbapenemase NDM-1",1257 nA
same,Electrochemical assay Intensity,"E. aerogenes strains; E. aerogenes 11772, Inducible cephalosporinase",362 nA
same,Electrochemical assay Intensity,"E. aerogenes strains; E. aerogenes 11775, Hyperproduced cephalosporinase",501 nA
same,Electrochemical assay Intensity,"E. aerogenes strains; E. aerogenes 11796, ESBL TEM 24",1249 nA
same,Electrochemical assay Intensity,S. marcescens strain [3],3922 nA
same,Electrochemical assay Intensity,E. cloacae strains [4]; [10],569 nA
same,Electrochemical assay Intensity,E. cloacae strains [4]; [11],686 nA
same,Electrochemical assay Intensity,E. cloacae strains [4]; [12],842 nA
same,Electrochemical assay Intensity,P. mirabilis strains [5]; [13],322 nA
same,Electrochemical assay Intensity,P. mirabilis strains [5]; [14],233 nA
same,β-Lacta ™ Test Colour,K. oxytoca strain [6],Yellow
same,β-Lacta ™ Test Colour,S. marcescens strain [7],Orange
same,β-Lacta ™ Test Colour,E. cloacae strains [8]; [10],Orange
same,β-Lacta ™ Test Colour,E. cloacae strains [8]; [11],Orange
same,β-Lacta ™ Test Colour,E. cloacae strains [8]; [12],Orange
same,β-Lacta ™ Test Colour,P. mirabilis strains [9]; [13],Yellow
same,β-Lacta ™ Test Colour,P. mirabilis strains [9]; [14],Yellow
